Some targets named below: BLK (Homo sapiens, UniProt P51451); CAMK1 (Homo sapiens, UniProt Q14012); CDK3 (Homo sapiens, UniProt Q00526); CDK4-cyclinD1 (Homo sapiens, UniProt P11802); CDKL2 (Homo sapiens, UniProt Q92772); CSNK1A1 (Homo sapiens, UniProt P48729); CSNK1G2 (Homo sapiens, UniProt P78368); CSNK2A1 (Homo sapiens, UniProt P68400); MAP2K3 (Homo sapiens, UniProt P46734); MET (Homo sapiens, UniProt P08581); NEK9 (Homo sapiens, UniProt Q8TD19); PRKCD (Homo sapiens, UniProt Q05655); PTK2B (Homo sapiens, UniProt Q14289); RET (Homo sapiens, UniProt P07949); TESK1 (Homo sapiens, UniProt Q15569); TXK (Homo sapiens, UniProt P42681); WNK1 (Homo sapiens, UniProt Q9H4A3).

Common to all, as to test: biochemical
Parameters in all cases: KINOMEscan competition binding, DNA-tagged kinase against immobilised ligand, qPCR read-out
Common to all, as to details: read-out: Percent Control
On the technique in general: Real-time PCR tracks product formation cycle by cycle.

The target of another experiment is T1, MST4 (Homo sapiens, UniProt Q9P289).
T1 construct: gene STK26

Experiment [1] has as its target T2, RPS6KA5(Kin.Dom.1-N-terminal) (Homo sapiens, UniProt O75582).
T2 construct: Kin.Dom.1 N-terminal

For experiment [2], the target named is T3, RSK3(Kin.Dom.1-N-terminal) (Homo sapiens, UniProt Q15349).
T3 construct: gene RPS6KA2; Kin.Dom.1 N-terminal

Sequence of PTK2B (Q14289 whole entry): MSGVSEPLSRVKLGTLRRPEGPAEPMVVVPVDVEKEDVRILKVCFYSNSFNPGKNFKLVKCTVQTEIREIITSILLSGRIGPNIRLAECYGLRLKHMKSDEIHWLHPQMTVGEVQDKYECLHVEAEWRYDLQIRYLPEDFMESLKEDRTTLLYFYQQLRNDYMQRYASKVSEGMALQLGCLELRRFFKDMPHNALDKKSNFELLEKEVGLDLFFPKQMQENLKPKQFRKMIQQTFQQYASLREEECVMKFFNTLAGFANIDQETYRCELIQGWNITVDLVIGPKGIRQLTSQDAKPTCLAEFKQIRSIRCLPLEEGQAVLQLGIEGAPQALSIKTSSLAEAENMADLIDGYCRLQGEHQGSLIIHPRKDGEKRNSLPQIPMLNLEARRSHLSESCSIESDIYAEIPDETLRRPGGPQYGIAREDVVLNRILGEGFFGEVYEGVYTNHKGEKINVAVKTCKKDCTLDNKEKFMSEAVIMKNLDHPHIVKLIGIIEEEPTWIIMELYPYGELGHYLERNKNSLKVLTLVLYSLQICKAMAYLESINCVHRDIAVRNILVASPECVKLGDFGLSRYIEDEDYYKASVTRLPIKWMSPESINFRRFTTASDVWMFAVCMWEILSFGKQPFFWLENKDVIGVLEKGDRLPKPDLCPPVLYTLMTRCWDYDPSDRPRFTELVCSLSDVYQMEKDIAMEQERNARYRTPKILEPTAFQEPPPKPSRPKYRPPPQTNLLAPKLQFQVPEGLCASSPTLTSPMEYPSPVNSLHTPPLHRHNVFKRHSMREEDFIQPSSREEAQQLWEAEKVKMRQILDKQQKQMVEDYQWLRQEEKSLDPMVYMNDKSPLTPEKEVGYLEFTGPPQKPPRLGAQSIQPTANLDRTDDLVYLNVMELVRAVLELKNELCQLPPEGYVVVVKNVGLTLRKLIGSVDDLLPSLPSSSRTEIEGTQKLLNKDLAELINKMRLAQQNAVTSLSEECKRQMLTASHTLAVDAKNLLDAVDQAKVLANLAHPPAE
T1 sequence (Q9P289 whole entry): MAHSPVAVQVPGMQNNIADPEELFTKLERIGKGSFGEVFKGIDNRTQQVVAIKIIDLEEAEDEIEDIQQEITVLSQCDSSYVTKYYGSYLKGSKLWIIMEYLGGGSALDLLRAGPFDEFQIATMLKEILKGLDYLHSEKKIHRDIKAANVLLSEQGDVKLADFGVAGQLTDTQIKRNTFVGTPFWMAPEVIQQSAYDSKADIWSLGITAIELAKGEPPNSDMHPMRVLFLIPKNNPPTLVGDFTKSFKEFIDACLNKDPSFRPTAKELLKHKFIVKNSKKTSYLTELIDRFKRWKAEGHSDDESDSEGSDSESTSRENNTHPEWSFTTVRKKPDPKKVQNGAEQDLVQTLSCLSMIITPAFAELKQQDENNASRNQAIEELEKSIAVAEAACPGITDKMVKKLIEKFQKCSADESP
Sequence of CDKL2 (Q92772 whole entry): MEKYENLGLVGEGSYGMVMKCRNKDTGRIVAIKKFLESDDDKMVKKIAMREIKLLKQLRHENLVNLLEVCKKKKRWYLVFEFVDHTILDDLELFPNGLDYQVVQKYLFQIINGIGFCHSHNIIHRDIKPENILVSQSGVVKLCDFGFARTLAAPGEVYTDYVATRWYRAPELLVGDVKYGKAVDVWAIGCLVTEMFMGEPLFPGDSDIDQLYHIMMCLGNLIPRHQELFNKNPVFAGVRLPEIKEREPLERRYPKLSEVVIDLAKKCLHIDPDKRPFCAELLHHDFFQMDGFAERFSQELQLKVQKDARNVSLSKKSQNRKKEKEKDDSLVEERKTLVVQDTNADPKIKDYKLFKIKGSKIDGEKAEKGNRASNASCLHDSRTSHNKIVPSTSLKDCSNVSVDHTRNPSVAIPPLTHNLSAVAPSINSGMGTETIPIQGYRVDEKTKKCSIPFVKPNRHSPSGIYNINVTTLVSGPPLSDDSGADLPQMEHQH
Sequence of TXK (P42681 whole entry): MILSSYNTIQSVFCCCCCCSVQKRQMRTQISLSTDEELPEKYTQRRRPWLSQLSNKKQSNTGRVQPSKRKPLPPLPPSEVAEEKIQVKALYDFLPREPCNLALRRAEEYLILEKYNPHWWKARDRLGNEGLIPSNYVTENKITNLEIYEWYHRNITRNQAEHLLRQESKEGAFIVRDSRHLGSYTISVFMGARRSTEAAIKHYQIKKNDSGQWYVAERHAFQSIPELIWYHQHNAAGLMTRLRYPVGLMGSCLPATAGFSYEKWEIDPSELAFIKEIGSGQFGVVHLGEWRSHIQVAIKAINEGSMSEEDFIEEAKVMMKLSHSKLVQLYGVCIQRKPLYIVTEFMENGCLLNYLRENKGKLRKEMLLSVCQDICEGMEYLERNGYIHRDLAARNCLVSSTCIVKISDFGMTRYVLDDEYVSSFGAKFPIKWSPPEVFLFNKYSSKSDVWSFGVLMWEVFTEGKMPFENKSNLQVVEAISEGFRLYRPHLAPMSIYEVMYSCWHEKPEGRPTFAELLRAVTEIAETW
Sequence of CDK4-cyclinD1 (P11802 whole entry): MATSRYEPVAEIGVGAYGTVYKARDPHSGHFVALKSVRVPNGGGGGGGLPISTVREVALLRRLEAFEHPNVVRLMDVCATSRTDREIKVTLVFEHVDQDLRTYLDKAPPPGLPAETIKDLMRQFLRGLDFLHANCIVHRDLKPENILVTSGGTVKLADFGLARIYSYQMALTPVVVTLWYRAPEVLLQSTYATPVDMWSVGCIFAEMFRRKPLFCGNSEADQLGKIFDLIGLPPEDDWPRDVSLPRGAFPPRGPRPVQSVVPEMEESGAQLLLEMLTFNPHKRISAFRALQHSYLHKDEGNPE
Sequence of CDK4-cyclinD1 (P24385 whole entry partner): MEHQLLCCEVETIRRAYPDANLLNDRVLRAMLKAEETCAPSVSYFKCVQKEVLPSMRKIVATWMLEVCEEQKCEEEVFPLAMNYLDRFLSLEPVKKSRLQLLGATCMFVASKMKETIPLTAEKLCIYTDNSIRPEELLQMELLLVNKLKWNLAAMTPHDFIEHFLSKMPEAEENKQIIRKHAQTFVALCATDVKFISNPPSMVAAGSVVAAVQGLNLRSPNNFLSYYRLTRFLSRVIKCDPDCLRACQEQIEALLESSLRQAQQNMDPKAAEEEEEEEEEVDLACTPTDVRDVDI
Sequence of CSNK1G2 (P78368 whole entry): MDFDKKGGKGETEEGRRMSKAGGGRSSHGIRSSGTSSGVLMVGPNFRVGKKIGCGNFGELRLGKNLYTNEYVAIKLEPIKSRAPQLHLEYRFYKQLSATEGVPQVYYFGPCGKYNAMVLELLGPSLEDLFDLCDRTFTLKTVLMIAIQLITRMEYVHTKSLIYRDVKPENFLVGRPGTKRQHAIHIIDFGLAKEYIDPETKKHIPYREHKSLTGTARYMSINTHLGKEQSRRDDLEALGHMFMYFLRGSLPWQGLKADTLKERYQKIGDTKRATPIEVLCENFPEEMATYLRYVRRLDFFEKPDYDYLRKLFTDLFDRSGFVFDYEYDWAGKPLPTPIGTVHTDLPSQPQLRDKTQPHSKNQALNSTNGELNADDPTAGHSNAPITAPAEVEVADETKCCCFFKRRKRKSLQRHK
Sequence of NEK9 (Q8TD19 whole entry): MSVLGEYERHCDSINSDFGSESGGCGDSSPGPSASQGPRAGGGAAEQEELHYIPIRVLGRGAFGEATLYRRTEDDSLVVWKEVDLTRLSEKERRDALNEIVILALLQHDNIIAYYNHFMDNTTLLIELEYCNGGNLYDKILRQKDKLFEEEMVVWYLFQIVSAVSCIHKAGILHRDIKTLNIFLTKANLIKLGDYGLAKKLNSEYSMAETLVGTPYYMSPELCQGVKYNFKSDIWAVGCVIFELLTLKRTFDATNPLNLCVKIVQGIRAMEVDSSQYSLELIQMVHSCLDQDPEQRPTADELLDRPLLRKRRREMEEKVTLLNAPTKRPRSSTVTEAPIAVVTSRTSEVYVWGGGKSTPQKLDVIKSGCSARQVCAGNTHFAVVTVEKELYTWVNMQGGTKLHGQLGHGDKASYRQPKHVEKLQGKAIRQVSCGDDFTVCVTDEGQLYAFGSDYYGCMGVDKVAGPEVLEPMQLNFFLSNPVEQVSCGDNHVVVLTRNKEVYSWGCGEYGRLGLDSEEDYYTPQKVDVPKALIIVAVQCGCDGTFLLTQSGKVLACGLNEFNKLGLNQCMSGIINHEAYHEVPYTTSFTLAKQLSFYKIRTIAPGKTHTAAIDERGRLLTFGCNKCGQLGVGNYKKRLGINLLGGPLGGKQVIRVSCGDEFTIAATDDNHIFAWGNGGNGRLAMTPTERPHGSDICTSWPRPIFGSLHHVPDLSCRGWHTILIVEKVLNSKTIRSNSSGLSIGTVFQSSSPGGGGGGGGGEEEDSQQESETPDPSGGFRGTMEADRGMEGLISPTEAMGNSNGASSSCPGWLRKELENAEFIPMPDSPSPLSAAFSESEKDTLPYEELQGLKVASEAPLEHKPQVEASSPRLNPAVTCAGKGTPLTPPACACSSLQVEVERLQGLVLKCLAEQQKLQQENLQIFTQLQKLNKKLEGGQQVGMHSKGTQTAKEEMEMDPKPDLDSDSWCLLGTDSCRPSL
Sequence of BLK (P51451 whole entry): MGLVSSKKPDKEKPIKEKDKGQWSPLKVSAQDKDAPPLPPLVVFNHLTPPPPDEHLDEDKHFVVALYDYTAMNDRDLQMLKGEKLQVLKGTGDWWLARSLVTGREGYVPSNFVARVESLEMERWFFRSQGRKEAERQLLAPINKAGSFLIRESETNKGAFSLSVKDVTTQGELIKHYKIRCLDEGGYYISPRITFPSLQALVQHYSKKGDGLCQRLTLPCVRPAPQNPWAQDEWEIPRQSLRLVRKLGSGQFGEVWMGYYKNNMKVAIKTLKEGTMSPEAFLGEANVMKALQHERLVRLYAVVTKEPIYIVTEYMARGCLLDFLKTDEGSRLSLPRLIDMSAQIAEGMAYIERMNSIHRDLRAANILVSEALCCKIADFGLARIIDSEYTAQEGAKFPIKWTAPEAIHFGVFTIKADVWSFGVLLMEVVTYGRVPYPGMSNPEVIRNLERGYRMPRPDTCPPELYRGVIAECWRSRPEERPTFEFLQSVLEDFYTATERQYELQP

As to `Oc1ccc(C2=Cc3ccc(O)cc3OC2)cc1` [compound 1, idronoxil], the remaining binding at 10 µM was 57% at BLK; 96% at CAMK1; 89% on CDK3; 94% at CDK4-cyclinD1; 100% on CDKL2; 86% on CSNK1A1. In addition, the remaining binding at 10 µM on CSNK1G2 was determined as 82%; at CSNK2A1 it was 49%; on MAP2K3, 56%; on MET, 81%; on MST4, 90%; at NEK9, 100%. Besides, the remaining binding at 10 µM was 96% on PRKCD; 99% at PTK2B; 96% on RET; 100% in [1]; 89% in [2]; 86% at TESK1. Moreover, the figures for the remaining binding at 10 µM at TXK and at WNK1 were 87% and 83%, respectively.

The values above are taken from PMC10507085, “Pharmacological inhibition of TBK1/IKKε blunts immunopathology in a murine model of SARS-CoV-2 infection” (Nature Communications, 2023).
